These results are taken from patent publication US20220002279A1, “NOVEL IMIDAZOLE DERIVATIVE” (priority 2018, published 2022).

pIC50: −log10 of the molar value. Values after ≈ are worked out from the molar mass of the structure shown. Where two headings read alike, the source gives them in different places.

The target in assay [1] is T1, Escherichia coli LpxC enzyme (Escherichia coli, UniProt P0A725).
T1 construct: made in house; host or cells: Escherichia coli
T1 sequence (P0A725 1-305): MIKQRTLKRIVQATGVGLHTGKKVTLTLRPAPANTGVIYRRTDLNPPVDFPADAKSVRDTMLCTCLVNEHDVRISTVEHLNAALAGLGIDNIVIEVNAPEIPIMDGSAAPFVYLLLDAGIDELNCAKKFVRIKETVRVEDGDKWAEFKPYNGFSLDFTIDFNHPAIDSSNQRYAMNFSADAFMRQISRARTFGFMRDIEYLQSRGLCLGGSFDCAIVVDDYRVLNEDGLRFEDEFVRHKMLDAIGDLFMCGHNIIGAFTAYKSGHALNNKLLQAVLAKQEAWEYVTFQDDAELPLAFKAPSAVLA
The experiment in a line: Inhibitory activity on Escherichia coli LpxC enzyme (fluorescamine method). In kind it is biochemical. The essentials:
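LpxC reacted with UDP-3-O-(R-3-hydroxymyristoyl)-N-acetylglucosamine; product amine quantified after fluorescamine stop and pH 8.0 phosphate buffer addition, at 390 nm/495 nm. Inhibition curve built from a range of test compound concentrations.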

In assay [2] the test system is Escherichia coli strain ATCC25922. Nature of the assay: Antimicrobial activity, MIC by broth microdilution. The following applies: ATCC25922, 18 h, cation-adjusted Mueller-Hinton broth, about 5×10^5 CFU/mL, 35° C., about 18 hours, read-out: MIC Escherichia coli ATCC25922. The class given is cell-based. The essentials: (§1)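 MIC read by eye as the lowest drug level lacking visible growth after roughly 18 h at 35° C. Cells from heart infusion agar, set to McFarland 0.5 and diluted, were inoculated at about 5×10^5 CFU/mL into cation-adjusted Mueller-Hinton broth with compound, per adapted CLSI microdilution.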
A general note: Dilution methods test growth across graded concentrations, often in twofold steps.

Assay [3] deals with Klebsiella pneumoniae strain ATCC13883. The experiment in a line: Antimicrobial activity, MIC by broth microdilution. The class given is cell-based. The note with it: ATCC13883, cation-adjusted Mueller-Hinton broth, about 5×10^5 CFU/mL, 35° C., about 18 hours, read-out: MIC Klebsiella pneumoniae ATCC13883. The essentials:
as §1

In assay [4] the test system is Pseudomonas aeruginosa strain ATCC27853. Nature of the assay: Antimicrobial activity, MIC by broth microdilution. The class given is cell-based. The note with it: ATCC27853, 18 h, cation-adjusted Mueller-Hinton broth, about 5×10^5 CFU/mL, 35° C., about 18 hours, read-out: MIC Pseudomonas aeruginosa ATCC27853. The essentials: as §1
Setting [5] is: fluorescamine detection, 3.1 nmol/L enzyme, 20 μmol/L substrate, pH 6.5, 120 min, read-out: IC50 (inhibitory activity on Escherichia coli LpxC enzyme, Fluoresamine method).

As a reminder, the pIC50 is the IC50 on a negative log10 scale, so that one unit is a factor of ten. As a reminder, the MIC is the lowest concentration found to suppress growth. In the case of `CC(=O)N1C[C@@H]2[C@@H](C#Cc3ccc(-c4cc(Cn5ccnc5[C@H](C)O)on4)cc3)[C@@H]2C1` [Compound 86, 1-[(1R,5S,6s)-6-({4-[5-((2-[(1S)-1-hydroxyethyl]-1H-imidazol-1-yl}methyl)-1,2-oxazol-3-yl]phenyl}ethynyl)-3-azabicyclo[3.1.0]hexan-3-yl]ethan-1-one], in assay [1] (setting [5]), the negative logarithm of the IC50 (pIC50) was 7.33. Also, the MIC in assay [2] stood at 1 µg/mL (≈ 2.4 µM); in assay [3], 1 µg/mL (≈ 2.4 µM); in assay [4], 32 µg/mL (≈ 76.8 µM).
Take `CC(=O)N[C@H]1C[C@H](C#Cc2ccc(-c3cc(Cn4ccnc4[C@H](C)O)no3)cc2)C1` [Compound 87, N-[trans-3-({4-[3-({2-[(1S)-1-hydroxyethyl]-1H-imidazol-1-yl}methyl)-1,2-oxazol-5-yl]phenyl}ethynyl)cyclobutyl]acetamide]: the negative logarithm of the IC50 (pIC50) in assay [1] (setting [5]) was 7.60. The results for the minimal inhibitory concentration (MIC) in assay [2], in assay [3] and in assay [4] were 0.5 µg/mL (≈ 1.24 µM), 1 µg/mL (≈ 2.47 µM) and more than 128 µg/mL, respectively.
With `CNC(=O)N1C[C@@H]2[C@@H](C#Cc3ccc(-c4cc(Cn5ccnc5[C@H](C)O)no4)cc3)[C@@H]2C1` [Compound 92, (1R,5S,6s)-6-({4-[3-({2-[(1S)-1-Hydroxyethyl]-1H-imidazol-1-yl}methyl)-1,2-oxazol-5-yl]phenyl}ethynyl)-N-methyl-3-azabicyclo[3.1.0]hexan-3-carboxamide], the pIC50 in assay [1] (setting [5]) was 7.26. Also, the values for the MIC in assay [2], in assay [3] and in assay [4] were 0.5 µg/mL (≈ 1.16 µM), 1 µg/mL (≈ 2.32 µM) and 16 µg/mL (≈ 37.1 µM), respectively.
With `C[C@H](O)c1nccn1Cc1cc(-c2ccc(C#C[C@@H]3[C@H]4CN(CCCCC(=O)O)C[C@@H]34)cc2)on1` [Compound 93, 5-[(1R,5S,6s)-6-({4-[3-((2-[(1S)-1-hydroxyethyl]-1H-imidazol-1-yl}methyl)-1,2-oxazol-5-yl]phenyl}ethynyl)-3-azabicyclo[3.1.0]hexan-3-yl]pentanoic acid], the pIC50 in assay [1] (setting [5]) was 6.43. Besides, the MIC in assay [2] was 4 µg/mL (≈ 8.43 µM); in assay [3] it was 4 µg/mL (≈ 8.43 µM); in assay [4], 8 µg/mL (≈ 16.9 µM).
As to `C[C@H](O)c1nccn1Cc1cc(-c2ccc(C#C[C@@H]3[C@H]4CN(CCCCCC(=O)O)C[C@@H]34)cc2)on1` [Compound 94, 6-[(1R,5S,6s)-6-({4-[3-({2-[(1S)-1-hydroxyethyl]-1H-imidazol-1-yl}methyl)-1,2-oxazol-5-yl]phenyl}ethynyl)-3-azabicyclo[3.1.0]hexan-3-yl]hexanoic acid], in assay [1] (setting [5]), the pIC50 is 6.39. Also, the MIC is 2 µg/mL (≈ 4.09 µM) in assay [2], 4 µg/mL (≈ 8.19 µM) in assay [3] and 16 µg/mL (≈ 32.7 µM) in assay [4].
Taken in the same sequence, the figures for `C[C@H](O)c1nccn1Cc1cc(-c2ccc(C#C[C@@H]3[C@H]4CN(C(=O)CCC(=O)O)C[C@@H]34)cc2)on1` [Compound 95, 4-[(1R,5S,6s)-6-({4-[3-({2-[(1S)-1-hydroxyethyl]-1H-imidazol-1-yl}methyl)-1,2-oxazol-5-yl]phenyl}ethynyl)-3-azabicyclo[3.1.0]hexan-3-yl]-4-oxobutanoic acid] were 6.87, 2 µg/mL (≈ 4.21 µM), 4 µg/mL (≈ 8.43 µM) and 16 µg/mL (≈ 33.7 µM).
Taken in the same sequence, the figures for `C[C@H](O)c1nccn1[C@H](CO)c1cc(-c2ccc(C#C[C@@H]3[C@H]4CN(CCO)C[C@@H]34)cc2)on1` [Compound 96, (2S)-2-[5-(4-{[(1R,5S,6s)-3-(2-hydroxyethyl)-3-azabicyclo[3.1.0]hexan-6-yl]ethynyl}phenyl)-1,2-oxazol-3-yl]-2-{2-[(1S)-1-hydroxyethyl]-1H-imidazol-1-yl}ethan-1-ol] were 6.59, 1 µg/mL (≈ 2.23 µM), 2 µg/mL (≈ 4.46 µM) and 4 µg/mL (≈ 8.92 µM).
Taken in the same sequence, the figures for `C[C@H](O)c1nccn1Cc1cc(-c2ccc(C#CC3CC(N(C)C)C3)cc2)on1` (stereo partly drawn) [Compound 97, (1S)-1-(i{[5-(4-{[3-(dimethylamino)cyclobutyl]ethynyl}phenyl)-1,2-oxazol-3-yl]methyl}-1H-imidazol-2-yl)ethan-1-ol] were 7.00, 4 µg/mL (≈ 10.2 µM), 8 µg/mL (≈ 20.5 µM) and 32 µg/mL (≈ 81.9 µM).
On to `C[C@H](O)c1nccn1Cc1cc(-c2ccc(C#CC3CC(NC4CC4)C3)cc2)on1` (stereo partly drawn) [Compound 98, (1S)-1-(1-{[5-(4-{[3-(cyclopropylamino)cyclobutyl]ethynyl}phenyl)-1,2-oxazol-3-yl]methyl}-1H-imidazol-2-yl)ethan-1-ol], for which the pIC50 in assay [1] (setting [5]) was 7.29. The figures for the MIC in assay [2], in assay [3] and in assay [4] were 0.25 µg/mL (≈ 0.621 µM), 0.5 µg/mL (≈ 1.24 µM) and 16 µg/mL (≈ 39.8 µM), respectively.
On to `CCN1C[C@@H]2[C@@H](C#Cc3ccc(-c4cc(Cn5ccnc5[C@H](C)O)no4)cc3)[C@@H]2C1` [Compound 99, (1S)-1-(1-{[5-(4-{[(1R,5S,6s)-3-ethyl-3-azabicyclo[3.1.0]hexan-6-yl]ethynyl}phenyl)-1,2-oxazol-3-yl]methyl}-1H-imidazol-2-yl)ethan-1-ol], for which the pIC50 in assay [1] (setting [5]) is 7.04. Further, the MIC in assay [2] stood at 2 µg/mL (≈ 4.97 µM); in assay [3], 2 µg/mL (≈ 4.97 µM); in assay [4] it was 16 µg/mL (≈ 39.8 µM).
Turning to `C[C@H](O)c1nccn1Cc1cc(-c2ccc(C#C[C@@H]3[C@H]4CN(C=O)C[C@@H]34)cc2)no1` [Compound 102, (1R,5S,6s)-6-({4-[5-({2-[(1S)-1-hydroxyethyl]-1H-imidazol-1-yl}methyl)-1,2-oxazol-3-yl]phenyl}ethynyl)-3-azabicyclo[3.1.0]hexane-3-carbaldehyde], the pIC50 in assay [1] (setting [5]) is 6.99. Also, the MIC turned out to be 0.5 µg/mL (≈ 1.24 µM) in assay [2], 1 µg/mL (≈ 2.48 µM) in assay [3] and 64 µg/mL (≈ 159 µM) in assay [4].
The compound `C[C@H](O)c1nccn1Cc1cc(-c2ccc(C#C[C@H]3C[C@H](NC=O)C3)cc2)on1` [Compound 103, N-[trans-3-({4-[3-({2-[(1S)-1-Hydroxyethyl]-1H-imidazol-1-yl}methyl)-1,2-oxazol-5-yl]phenyl}ethynyl)cyclobutyl]formamide] had a negative logarithm of the IC50 (pIC50) in assay [1] of 7.06. The minimal inhibitory concentration (MIC) in assay [2] was 1 µg/mL (≈ 2.56 µM); in assay [3], 2 µg/mL (≈ 5.12 µM); in assay [4] it was more than 128 µg/mL.
For the compound `CNC(=O)C(=O)N1C[C@@H]2[C@@H](C#Cc3ccc(-c4cc(Cn5ccnc5[C@H](C)O)no4)cc3)[C@@H]2C1` [Compound 105, 2-[(1R,5S,6s)-6-({4-[3-({2-[(1S)-1-Hydroxyethyl]-1H-imidazol-1-yl}methyl)-1,2-oxazol-5-yl]phenyl}ethynyl)-3-azabicyclo[3.1.0]hexan-3-yl]-N-methyl-2-oxoacetamide], the negative logarithm of the IC50 (pIC50) in assay [1] (setting [5]) was 7.20. Besides, the minimal inhibitory concentration (MIC) in assay [2] worked out at 1 µg/mL (≈ 2.18 µM); in assay [3], 1 µg/mL (≈ 2.18 µM); in assay [4], 16 µg/mL (≈ 34.8 µM).
Regarding `C[C@H](O)c1nccn1Cc1cc(-c2ccc(C#C[C@@H]3[C@H]4CN(C(=O)C(N)=O)C[C@@H]34)cc2)on1` [Compound 107, 2-[(1R,5S,6s)-6-((4-[3-((2-[(1S)-1-hydroxyethyl]-1H-imidazol-1-yl}methyl)-1,2-oxazol-5-yl]phenyl}ethynyl)-3-azabicyclo[3.1.0]hexan-3-yl]-2-oxoacetamide], the pIC50 in assay [1] (setting [5]) was 7.10. Moreover, the minimum inhibitory concentration (MIC) in assay [2] worked out at 2 µg/mL (≈ 4.49 µM); in assay [3], 1 µg/mL (≈ 2.24 µM); in assay [4], 8 µg/mL (≈ 18 µM).
The corresponding values for `C[C@H](O)c1nccn1Cc1cc(-c2ccc(C#C[C@@H]3[C@H]4CN(C(=O)C(=O)N(C)C)C[C@@H]34)cc2)on1` [Compound 108, 2-[(1R,5S,6s)-6-((4-[3-((2-[(1S)-1-hydroxyethyl]-1H-imidazol-1-yl}methyl)-1,2-oxazol-5-yl]phenyl}ethynyl)-3-azabicyclo[3.1.0]hexan-3-yl]-N,N-dimethyl-2-oxoacetamide] are 6.91, 4 µg/mL (≈ 8.45 µM), 4 µg/mL (≈ 8.45 µM) and 16 µg/mL (≈ 33.8 µM).
The compound `C[C@H](O)c1nccn1Cc1cc(-c2ccc(C#CC3C(CO)C3CO)cc2)on1` (stereo partly drawn) [Compound 109, (1S)-1-(1-{[5-(4-{[2,3-Bis(hydroxymethyl)cyclopropyl]ethynyl}phenyl)-1,2-oxazol-3-yl]methyl}-1H-imidazol-2-yl)ethan-1-ol] showed a pIC50 in assay [1] of 6.88. The minimal inhibitory concentration (MIC) in assay [2] stood at 16 µg/mL (≈ 40.7 µM); in assay [3], 32 µg/mL (≈ 81.3 µM); in assay [4], 64 µg/mL (≈ 163 µM).
As to `C[C@H](O)c1nccn1Cc1cc(-c2ccc(C#C[C@@H]3[C@H]4CN(CCCC(=O)O)C[C@@H]34)cc2)no1` [Compound 111, 4-[(1R,5S,6s)-6-({4-[5-({2-[(1S)-1-hydroxyethyl]-1H-imidazol-1-yl}methyl)-1,2-oxazol-3-yl]phenyl}ethynyl)-3-azabicyclo[3.1.0]hexan-3-yl]butanoic acid], in assay [1] (setting [5]), the negative-log IC50 (pIC50) was 6.71. For the same compound, the MIC in assay [2] was determined as 1 µg/mL (≈ 2.17 µM); in assay [3] it was 4 µg/mL (≈ 8.69 µM); in assay [4] it was 8 µg/mL (≈ 17.4 µM).
